Source: US9266921B2, “PGC-1α-modulating peptides” (Lipotec, S.A., priority 2011, dated 2016)

Columns and labels:
breasts = experiment: Volume of the breasts in volunteers (Fast Optical In Vivo Topometry); design: species or system human; conditions: treatment up to 56 days
Text: 22 Caucasian volunteers between the age of 25 and 40, with healthy skin and a bra size of between 36 C to 40 E applied the composition from Example 16 to one breast and a placebo composition (the same composition from Example 16 without the peptide) to the other breast, twice a day for 56 days. The volume of the breasts was instrumentally assessed at the beginning of the study, after 14 days and 28 days of applying the compositions and at the end of the study (56 days) using the Fast Optical In Vivo Topometry Technique, which enables the volume of the breasts to be calculated in mm^3. The volume of the breasts was normalized initially at an arbitrary value of 100,000 mm^3 and the changes in volume of the breasts was measured at the different treatment times in relation to their initial volume. The statistical analysis of the evolution of the parameters measured during the study was carried out using the Student's t-test or the Wilcoxon test. The statistical significance threshold was established at 5%.

PGC-1α gene = experiment: Transcription of the PGC-1α gene, quantitative real time PCR in differentiating pre-adipocytes; format: cell-based; conditions: subcutaneous human adipocytes; peptide 0.1 mg/mL in PDM-2, 10 days; PGM-2 = 0%, PDM-2 = 100%
Description: The expression levels of the gene PGC-1α are measured by PCR in quantitative real time. A cell line of subcutaneous human pre-adipocytes is incubated in PGM™-2 medium at a density of 100,000 cells/well in a volume of 100 μL for 24 hours. Differentiation is induced by changing the medium to PDM-2 in the presence of the peptides Ac-L-Ser-L-Ile-L-Tyr-L-Val-L-Ala-L-Thr-NH2 (Ac-SEQ ID NO. 1-NH2) and Ac-L-Ser-L-Val-L-Val-L-Val-L-Arg-L-Thr-NH2 (Ac-SEQ ID NO. 2-NH2) at 0.1 mg/mL for 10 days, after which the cells were lysed and the RNA is extracted. The PCR is carried out in quantitative real time using the Taqman® Gene Expression Cells-to-CT (Applied Biosystems) kit according to the manufacturer's instructions and with the appropriate probes (TaqMan® Hs01016719_m1 probe for the PGC-1α gene and Taqman® Hs99999901_s1 probe for the eukaryotic ribosomal subunit 18S, the endogenous control of expression) and the values are normalized with regards to the maximum differentiation controls (PDM-2 medium, maximum quantity of PGC-1α mRNA) and minimal differentiation (PGM™-2 medium, minimum quantity of PGC-1α mRNA).

[1] = test system: subcutaneous human pre-adipocytes; experiment: Accumulation of lipids in subcutaneous human pre-adipocytes (AdipoRed); format: cell-based; conditions: peptide 0.1 mg/mL in PDM-2, 10 days, PGM-2 = 0%, PDM-2 = 100%
Description: The levels of accumulation of lipids in subcutaneous human pre-adipocytes were quantified using the AdipoRed™ (Lonza) reagent. 100,000 cells were cultivated per well in PGM™-2 medium at a final volume of 100 μL. After 24 hours, the differentiation from pre-adipocytes to mature adipocytes was induced changing the medium to PDM-2 in the presence of the different peptides at 0.1 mg/mL. After 10 days of treatment with the peptides in differentiation medium, the quantity of intracellular lipids was evaluated using the AdipoRed™ reagent following the manufacturer's instructions measuring the fluorescence of the samples (length of the excitation wave 485 nm and emission 535 nm) after adding the AdipoRed™ reagent. The fluorescence values were corrected with regards to the basal fluorescence and were normalized with regards to the maximum differentiation controls (PDM-2 medium, maximum accumulation of lipids) and minimum differentiation (PGM™-2 medium, minimum accumulation of lipids).

human PGC-1α promoter = experiment: Modulation of the human PGC-1α promoter activity (luciferase reporter, Hep G2); format: cell-based; conditions: Hep G2 transfected with luciferase under human PGC-1α promoter; peptide 0.5 mg/mL, 24 hours; normalized to carrier = 100%
Description: The modulation capacity of the promoter of human PGC-1α is evaluated by the peptides in the invention in the hepatocellular Hep G2 carcinoma cell line transfected with the luciferase gene under the regulation of the human PGC-1α promoter. The cells are seeded at a density of 20,000 cells/25 cm^2 plate) and incubated for 24 hours in RPMI-1640 complete medium, after which the peptides of the invention are added at 0.5 mg/mL and are incubated for another 24 hours. The RPMI-1640 complete medium (carrier) is used as a negative control. The measurement of the promoter's activity is carried out using the Steady-Glo® Luciferase Assay System (PROMEGA) kit following the manufacturer's instructions. The luminescence values are read on a luminometer […] and the activity of the promoter is determined, which is normalized with regards to the values of the negative control.

Activity of the PGC-1α promoter (%) (human PGC-1α promoter): 114%
Substance: Ac-L-Ser-L-Val-L-Val-L-Val-L-Arg-L-Thr-NH2 (Ac-SVVVRT-NH2) [Ac-SEQ ID NO. 2-NH2]
effect on the volume of the breasts (breasts): induces an increase in the volume of the breasts
% relative quantity of PGC-1α mRNA (PGC-1α gene): 125%
% Accumulation of intracellular lipids [1]: 128%
